Data published in PMC11057203, “Synergy between Winter Flounder antimicrobial peptides” (npj Antimicrobials and Resistance, 2023).
Each block holds one molecule with its values, some of them ahead of it. Non-standard residues stand in square brackets, D forms with d. Residues, ends and D or L forms follow the SMILES beside them.

Key:
EMRSA-15 NCTC 13616 = format: cell-based, Staphylococcus aureus
Procedure: (§1) Synergy was measured using standard microdilution Chequerboard assays under the same conditions as the MICs with RPMI140 + 5% FBS used alongside MHB[18]. Twofold dilution series of each peptide or antibiotic were prepared in separate 96 well plates and then combined into one before addition of bacteria. The growth/no growth interface was determined using the same definition as the MIC. The fractional inhibitory concentration was calculated from the most synergistic well on the plate for three independent repeats, and presented as above. MICs were determined on the same plates as the FICs to increase reproducibility.

P. aeruginosa RP73 = format: cell-based, Pseudomonas aeruginosa
Procedure: as §1

[1] = tested on: Klebsiella pneumoniae NCTC 13368; format: cell-based; conditions: Supplementary Table 1; Mueller-Hinton broth; unit inferred
Procedure: (§3) The antibacterial activity of the peptides was assessed through a modified two-fold broth microdilution assay with modal MICs generated from at least three biological replicate experiments[37]. The method broadly followed EUCAST methodology, with non-cation adjusted Mueller Hinton replacing cation-adjusted Mueller Hinton. Peptides and antibiotics were diluted in a two-fold dilution in media down a 96 well plate. Bacteria were then added, back-diluted from an overnight culture, at a starting concentration of 5 × 10^5 CFU/ml. Plates were incubated, static at 37 °C, for 20 h and the OD600 was determined using a Clariostar plate reader (BMG Labtech).

Klebsiella pneumoniae M6 = format: cell-based; conditions: Supplementary Table 1; Mueller-Hinton broth; unit inferred
Procedure: as §3

[2] = tested on: Acinetobacter baumannii AYE; format: cell-based; conditions: Supplementary Table 1; Mueller-Hinton broth; unit inferred
Procedure: as §3

[3] = tested on: Acinetobacter baumannii ATCC 17978; format: cell-based; conditions: Supplementary Table 1; Mueller-Hinton broth; unit inferred
Procedure: as §3

[4] = tested on: Pseudomonas aeruginosa PAO1; format: cell-based; conditions: Supplementary Table 1; Mueller-Hinton broth; unit inferred
Procedure: as §3

[5] = tested on: Pseudomonas aeruginosa NCTC 13437; format: cell-based; conditions: Supplementary Table 1; Mueller-Hinton broth; unit inferred
Procedure: as §3

[6] = tested on: Pseudomonas aeruginosa RP73; format: cell-based; conditions: Supplementary Table 1; Mueller-Hinton broth; unit inferred
Procedure: as §3

[7] = tested on: Escherichia coli NCTC 12923; format: cell-based; conditions: Supplementary Table 1; Mueller-Hinton broth; unit inferred
Procedure: as §3

[8] = tested on: EMR Staphylococcus aureus-15 NCTC 13616; format: cell-based; conditions: Supplementary Table 1; Mueller-Hinton broth; unit inferred
Procedure: as §3

[9] = tested on: VS Enterococcus faecalis NCTC 775; format: cell-based; conditions: Supplementary Table 1; Mueller-Hinton broth; unit not given
[10] = tested on: VR Enterococcus faecalis NCTC 12201; format: cell-based; conditions: Supplementary Table 1; Mueller-Hinton broth; unit inferred
Procedure: as §3

[11] = tested on: VR Enterococcus faecium NCTC 12204; format: cell-based; conditions: Supplementary Table 1; Mueller-Hinton broth; unit inferred
Procedure: as §3

[12] = tested on: Staphylococcus aureus 1199B; assay: Broth microdilution MIC; format: cell-based; conditions: Supplementary Table 1; Mueller-Hinton broth; unit not given
Procedure: (§2) The antibacterial activity of the peptides was assessed through a modified two-fold broth microdilution assay with modal MICs generated from at least three biological replicate experiments. The method broadly followed EUCAST methodology, with non-cation adjusted Mueller Hinton replacing cation-adjusted Mueller Hinton. Peptides and antibiotics were diluted in a two-fold dilution in media down a 96 well plate. Bacteria were then added, back-diluted from an overnight culture, at a starting concentration of 5 × 10^5 CFU/ml. Plates were incubated, static at 37 °C, for 20 h and the OD600 was determined using a Clariostar plate reader (BMG Labtech).

[13] = tested on: Staphylococcus aureus NCTC 6571; assay: Broth microdilution MIC; format: cell-based; conditions: Supplementary Table 1; Mueller-Hinton broth; unit not given
Procedure: as §2

[14] = tested on: Staphylococcus aureus USA300; assay: Broth microdilution MIC; format: cell-based; conditions: Supplementary Table 1; Mueller-Hinton broth; unit not given
Procedure: as §2

P. aeruginosa 372261 = assay: Broth microdilution MIC; format: cell-based, Pseudomonas aeruginosa; conditions: Supplementary Table 1; Mueller-Hinton broth; unit not given
Procedure: as §2

P. aeruginosa CAS2 = assay: Broth microdilution MIC; format: cell-based, Pseudomonas aeruginosa; conditions: Supplementary Table 1; Mueller-Hinton broth; unit not given
Procedure: as §2

P. aeruginosa CAS3 = assay: Broth microdilution MIC; format: cell-based, Pseudomonas aeruginosa; conditions: Supplementary Table 1; Mueller-Hinton broth; unit not given
Procedure: as §2

P. aeruginosa CAS4 = assay: Broth microdilution MIC; format: cell-based, Pseudomonas aeruginosa; conditions: Supplementary Table 1; Mueller-Hinton broth; unit not given
Procedure: as §2

P. aeruginosa GH12 = assay: Broth microdilution MIC; format: cell-based, Pseudomonas aeruginosa; conditions: Supplementary Table 1; Mueller-Hinton broth; unit not given
Procedure: as §2

A. baumannii ATCC 17978 = assay: Galleria mellonella burn wound infection model; format: in vivo; conditions: 5 mg/kg, topical 1 h after infection; n = 30 larvae; burn and infection untreated 46.0%
Procedure: Prior to use, G. mellonella were surface decontaminated by immersion in 50% ethanol for 20 s and allowed to dry. All assays were performed on three separate occasions using a group size of 10 larvae; the larvae were kept in separate petri dishes and in the dark in a static incubator at 37 °C for the duration of the experiment. Fresh agar plates of A. baumannii ATCC 17978 were prepared immediately prior to the experiment. Larvae were burnt using the flat head of a nail which was heated in a blue Bunsen burner flame until red hot, cooled for 15 s and superficially applied for 2 s to generate a 2 mm^2 burn. Larvae were infected with a single colony of A. baumannii ATCC 17978 applied directly to the burn site. Treatment was applied topically 1 h after infection in a volume of 5 µl or sterile phosphate buffered saline as a control. Survival was monitored over 96 h.

Gram-negative bacteria = assay: Broth microdilution MIC, Gram-negative panel; format: cell-based; conditions: Mueller–Hinton broth; span of Table 2 Gram-negative isolates
Procedure: as §2

D-WF1a MIC (alone) (EMRSA-15 NCTC 13616): 512 µg/mL
D-WF1a MIC (alone) (P. aeruginosa RP73): 512 µg/mL
SMILES: CC[C@@H](C)[C@@H](NC(=O)[C@@H](CCCNC(=N)N)NC(=O)[C@@H](CCCNC(=N)N)NC(=O)[C@@H](CC(C)C)NC(=O)[C@H](N)Cc1c[nH]c2ccccc12)C(=O)NCC(=O)N[C@H](CCCCN)C(=O)NCC(=O)N[C@@H](C(=O)N[C@H](CCCCN)C(=O)N[C@@H](C(=O)N[C@@H](C(=O)NCC(=O)NCC(=O)N[C@H](C)C(=O)N[C@H](C)C(=O)N[C@H](CC(C)C)C(=O)N[C@H](CC(=O)O)C(=O)N[C@H](Cc1c[nH]cn1)C(=O)N[C@H](CC(C)C)C(N)=O)[C@H](C)CC)[C@H](C)CC)C(C)C [D-WF1a] (H-[dW][dL][dR][dR][dI]G[dK]G[dV][dK][dI][dI]GG[dA][dA][dL][dD][dH][dL]-NH2; N-terminus assumed)

Pleurocidin MIC (analogue alone) (EMRSA-15 NCTC 13616): 2 µg/ml
Pleurocidin MIC (analogue alone) (P. aeruginosa RP73): 8-16 µg/ml
SMILES: CC(C)C[C@@H](NC(=O)[C@@H](Cc1ccc(O)cc1)NC(=O)[C@@H](Cc1c[nH]cn1)NC(=O)[C@H](NC(=O)[C@@H](CC(C)C)NC(=O)[C@@H](C)NC(=O)[C@@H](C)NC(=O)[C@@H](CCCNC(=N)N)NC(=O)CNC(=O)[C@H](NC(=O)[C@@H](Cc1c[nH]cn1)NC(=O)[C@@H](CCCNC(=N)N)NC(=O)CNC(=O)[C@H](NC(=O)[C@@H](Cc1c[nH]cn1)NC(=O)[C@@H](C)NC(=O)[C@@H](C)NC(=O)[C@@H](CCCNC(=N)N)NC(=O)[C@@H](CCCNC(=N)N)NC(=O)[C@@H](Cc1ccccc1)NC(=O)[C@@H](Cc1ccccc1)NC(=O)[C@@H](CO)NC(=O)CNC(=O)[C@@H](Cc1c[nH]c2ccccc12)NC(=O)CN)C(C)C)C(C)C)[C@H](C)O)C(N)=O [D-pleurocidin-KR] (H-G[dW]G[dS][dF][dF][dR][dR][dA][dA][dH][dV]G[dR][dH][dV]G[dR][dA][dA][dL][dT][dH][dY][dL]-NH2; N-terminus assumed)

SMILES: CC(C)C[C@@H](NC(=O)[C@@H](Cc1ccc(O)cc1)NC(=O)[C@@H](Cc1c[nH]cn1)NC(=O)[C@H](NC(=O)[C@@H](CC(C)C)NC(=O)[C@@H](C)NC(=O)[C@@H](C)NC(=O)[C@@H](CCCCN)NC(=O)CNC(=O)[C@H](NC(=O)[C@@H](Cc1c[nH]cn1)NC(=O)[C@@H](CCCCN)NC(=O)CNC(=O)[C@H](NC(=O)[C@@H](Cc1c[nH]cn1)NC(=O)[C@@H](C)NC(=O)[C@@H](C)NC(=O)[C@@H](CCCCN)NC(=O)[C@@H](CCCCN)NC(=O)[C@@H](Cc1ccccc1)NC(=O)[C@@H](Cc1ccccc1)NC(=O)[C@@H](CO)NC(=O)CNC(=O)[C@@H](Cc1c[nH]c2ccccc12)NC(=O)CN)C(C)C)C(C)C)[C@H](C)O)C(N)=O [D-pleurocidin] (H-G[dW]G[dS][dF][dF][dK][dK][dA][dA][dH][dV]G[dK][dH][dV]G[dK][dA][dA][dL][dT][dH][dY][dL]-NH2; N-terminus assumed)
Antimicrobial activity of D-enantiomers, Klebsiella pneumoniae NCTC 13368 [1]: 2 µg/mL
Antimicrobial activity of D-enantiomers, Klebsiella pneumoniae M6 (Klebsiella pneumoniae M6): 2 µg/mL
Antimicrobial activity of D-enantiomers, Acinetobacter baumannii AYE [2]: 2 µg/mL
Antimicrobial activity of D-enantiomers, Acinetobacter baumannii ATCC 17978 [3]: 1 µg/mL
Antimicrobial activity of D-enantiomers, Pseudomonas aeruginosa PAO1 [4]: 2 µg/mL
Antimicrobial activity of D-enantiomers, Pseudomonas aeruginosa NCTC 13437 [5]: 8 µg/mL
Antimicrobial activity of D-enantiomers, P. aeruginosa RP73 [6]: 16 µg/mL
Antimicrobial activity of D-enantiomers, Escherichia coli NCTC 12923 [7]: 1 µg/mL
Antimicrobial activity of D-enantiomers, EMR Staphylococcus aureus-15 NCTC 13616 [8]: 16 µg/mL
Antimicrobial activity of D-enantiomers, VS Enterococcus faecalis NCTC 775 [9]: 16
Antimicrobial activity of D-enantiomers, VR Enterococcus faecalis NCTC 12201 [10]: 64 µg/mL
Antimicrobial activity of D-enantiomers, VR Enterococcus faecium NCTC 12204 [11]: 16 µg/mL
Antimicrobial activity of D-enantiomers, Staphylococcus aureus 1199B [12]: 16
Antimicrobial activity of D-enantiomers, Staphylococcus aureus NCTC 6571 [13]: 16
Antimicrobial activity of D-enantiomers, Staphylococcus aureus USA300 [14]: 32
Antimicrobial activity of D-enantiomers, P. aeruginosa 372261 (P. aeruginosa 372261): 4
Antimicrobial activity of D-enantiomers, P. aeruginosa CAS2 (P. aeruginosa CAS2): 8
Antimicrobial activity of D-enantiomers, P. aeruginosa CAS3 (P. aeruginosa CAS3): 4
Antimicrobial activity of D-enantiomers, P. aeruginosa CAS4 (P. aeruginosa CAS4): 8
Antimicrobial activity of D-enantiomers, P. aeruginosa GH12 (P. aeruginosa GH12): 4
Pleurocidin MIC (analogue alone) (EMRSA-15 NCTC 13616): 8-16 µg/ml
Pleurocidin MIC (analogue alone) (P. aeruginosa RP73): 8-16 µg/ml

SMILES: CNC(C)C1CCC(N)C(OC2C(N)CC(N)C(OC3OCC(C)(O)C(NC)C3O)C2O)O1 (stereo not drawn) [Gentamicin]
Survival % @ 96 h (A. baumannii ATCC 17978): 86.7%

SMILES: C[C@@H](O)[C@H]1C(=O)N2C(C(=O)O)=C(SCCN=CN)C[C@H]12 [Imipenem]
Survival % @ 96 h (A. baumannii ATCC 17978): 70.0%

SMILES: C[C@@H](O)[C@H]1C(=O)N2C(C(=O)O)=C(S[C@@H]3CN[C@H](C(=O)N(C)C)C3)[C@H](C)[C@H]12 [Meropenem]
Survival % @ 96 h (A. baumannii ATCC 17978): 70.0%

SMILES: CC[C@H](C)[C@H](NC(=O)[C@H](CCCNC(=N)N)NC(=O)[C@H](CCCNC(=N)N)NC(=O)[C@H](CC(C)C)NC(=O)[C@H](Cc1c[nH]c2ccccc12)NC(=O)[C@H](CCCCN)NC(=O)[C@H](CCCNC(=N)N)NC(=O)[C@H](CCCCN)NC(=O)[C@H](CCCNC(=N)N)NC(=O)[C@H](CCCNC(=N)N)NC(=O)CN)C(=O)NCC(=O)N[C@@H](CCCCN)C(=O)NCC(=O)N[C@H](C(=O)N[C@@H](CCCCN)C(=O)N[C@H](C(=O)N[C@H](C(=O)NCC(=O)NCC(=O)N[C@@H](C)C(=O)N[C@@H](C)C(=O)N[C@@H](CC(C)C)C(=O)N[C@@H](CC(=O)O)C(=O)N[C@@H](Cc1c[nH]cn1)C(=O)N[C@@H](CC(C)C)C(N)=O)[C@@H](C)CC)[C@@H](C)CC)C(C)C [WF1a-1] (H-GRRKRKWLRRIGKGVKIIGGAALDHL-NH2)
MICs against Gram-negative isolates (range over panel) (Gram-negative bacteria): 0.25 to 8 µg/mL
